Assays:
Format in all cases: in vivo
[1] = tested on: human bladder cancer cells (T24); assay: Pulmonary metastases of T24 human bladder cancer cells injected via tail vein into SCID-beige mice; settings: for Number of metastases (mean ± SEM), T-24, with Enalapril: enalapril 10 mg/kg intraperitoneal twice a day, alone or with Cyclosporine 20 mg/kg or FK506 4 mg/kg every other day; for Incidence of tumors as compared to controls: summary of Table I (T24 and Renca) and Example 3 (T-24), in the absence of immunosuppressive agent
Protocol: (§1) In vivo tumor growth. Murine renal cell adenocarinoma cells (1×10^5 in Hanks balanced salt solution), murine Lewis lung carcinoma cells (1×10^5 cells), or human bladder cancer cells (1×10^5 cells) are injected via the tail vein into 6-wk old male SCID-beige mice. […] On day 19 or 23 post tumor inoculation, mice are killed and the number of pulmonary metastases is determined […] endotracheal insufflation of lungs with 15% India ink solution and bleaching the harvested lungs in Fekete's solution.
(§2) SCID-beige (immunodeficient) mice were inoculated with human bladder cancer cells (T24) or murine renal cancer cells (Renca). Tumor bearing mice were then treated with cyclosporin A or the angiotensin II receptor blocker, losartan or both.
(§3) Tumor cells (1×10^5 in HBSS) were injected via the tail vein into SCID-beige mice. […] The mice were sacrificed on day 19 (Renca) and day 23 (T24) and the number of metastases was counted as described (reference 7).

[2] = tested on: pulmonary metastasis; assay: Tumor progression / development of pulmonary metastasis in experimental animals (Example 2)
[3] = tested on: murine renal cancer cells (Renca); assay: Pulmonary metastases of Renca murine renal cancer cells injected via tail vein into SCID-beige mice; settings: 1×10^5 Renca cells via tail vein, sacrificed day 19, CsA 20 mg/kg SQ QOD, Losartan 10 mg/kg SQ BID, untreated 125 ± 22
Protocol: as §1, with “solution. The effect of angiotensin II inhibitors and anti-angiotensin II mAbs and the control IgG1 mAbs on CsA-induced increase in the number of pulmonary metastases is determined by intraperitoneal administration of 200 μg of mAbs, on a daily basis starting from day −1 to day 19 post tumor inoculation.” for “solution.”
as §2, §3

[4] = SCID beige mice, 100,000 T-24 cells by tail vein

Row | SMILES | Number of metastases (mean ± SEM), T-24, with Enalapril [1, 4] | Incidence of tumors as compared to controls [1] | Effect on development of pulmonary metastasis [2] | Number of metastases (mean ± SEM), T-24, without Enalapril ([1]; SCID beige mice, 100,000 T-24 cells by tail vein, Cyclosporine 20 mg/kg or FK506 4 mg/kg every other day, no enalapril, untreated 38 ± 4) | Number of Pulmonary Metastases (Mean ± SEM), T24 ([1]; SCID-beige mice, 1×10^5 T24 cells via tail vein, sacrificed day 23, CsA 20 mg/kg SQ QOD, Losartan 10 mg/kg SQ BID, untreated 25 ± 7) | Number of Pulmonary Metastases (Mean ± SEM), Renca [3]
1 | CCOC(=O)[C@H](CCc1ccccc1)N[C@@H](C)C(=O)N1CCC[C@H]1C(=O)O [Enalapril] | 21 ± 3 | reduces the incidence of tumors as compared to controls | prevented the development of pulmonary metastasis | – | – | –
2 | C=CC[C@@H]1/C=C(\C)C[C@H](C)C[C@H](OC)[C@H]2O[C@@](O)(C(=O)C(=O)N3CCCC[C@H]3C(=O)O[C@H](/C(C)=C/[C@@H]3CC[C@@H](O)[C@H](OC)C3)[C@H](C)[C@@H](O)CC1=O)[C@H](C)C[C@@H]2OC [FK506] | 30 ± 2 | – | – | 72 ± 21 | – | –
3 | CCCCc1nc(Cl)c(CO)n1Cc1ccc(-c2ccccc2-c2nn[nH]n2)cc1 [Losartan] | – | reduces the incidence of tumors as compared to controls | – | – | 12 ± 3 | 67 ± 15

— patent US6641811B1, “Use of angiotensin II inhibitors to prevent malignancies associated with immunosuppression” (Cornell Research Foundation, Inc., priority 2000, dated 2003)
